Measurements as given in the NIST ThermoML archive (doi:10.1021/je034142v).
Where “and” joins values, the source holds several entries; their conditions need not be identical. Equal entries are not always repeated.

Settings: Liquid; for mass density: vibrating tube

C1CCCC1 [cyclopentane]
Settings	mass density [kg/m3]	viscosity
257.86 K, 100 kPa	–	0.6878 mPa·s
257.87 K, 100 kPa	–	0.6871 mPa·s
258.01 K, 100 kPa	–	0.6851 mPa·s
262.93 K, 100 kPa	–	0.6393 mPa·s and 0.6392 mPa·s
262.93 K, 3100 kPa	–	0.6574 mPa·s
262.93 K, 5600 kPa	–	0.6719 mPa·s
262.93 K, 7900 kPa	–	0.6858 mPa·s
262.93 K, 10100 kPa	–	0.6987 mPa·s
262.93 K, 25800 kPa	–	0.795 mPa·s
262.93 K, 50800 kPa	–	0.9583 mPa·s
262.93 K, 75700 kPa	–	1.137 mPa·s
262.93 K, 100700 kPa	–	1.333 mPa·s
262.93 K, 125800 kPa	–	1.546 mPa·s
262.93 K, 150800 kPa	–	1.782 mPa·s
262.93 K, 175800 kPa	–	2.04 mPa·s
262.93 K, 200800 kPa	–	2.322 mPa·s
262.93 K, 225900 kPa	–	2.629 mPa·s
262.93 K, 250900 kPa	–	2.967 mPa·s
262.93 K, 275800 kPa	–	3.333 mPa·s
262.93 K, 300600 kPa	–	3.725 mPa·s
262.99 K, 100 kPa	–	0.6384 mPa·s and 0.6388 mPa·s
262.99 K, 3100 kPa	–	0.6562 mPa·s
262.99 K, 5600 kPa	–	0.6709 mPa·s
262.99 K, 8100 kPa	–	0.6858 mPa·s
262.99 K, 10800 kPa	–	0.7025 mPa·s
262.99 K, 25800 kPa	–	0.7943 mPa·s
262.99 K, 50800 kPa	–	0.9576 mPa·s
262.99 K, 75700 kPa	–	1.136 mPa·s
262.99 K, 100500 kPa	–	1.33 mPa·s
262.99 K, 125500 kPa	–	1.543 mPa·s
262.99 K, 150500 kPa	–	1.778 mPa·s
262.99 K, 175500 kPa	–	2.032 mPa·s
262.99 K, 200200 kPa	–	2.307 mPa·s
263.03 K, 100 kPa	–	0.6386 mPa·s and 0.639 mPa·s
263.03 K, 10600 kPa	–	0.7005 mPa·s
263.03 K, 20600 kPa	–	0.7608 mPa·s
263.03 K, 30600 kPa	–	0.8231 mPa·s
263.03 K, 40500 kPa	–	0.8873 mPa·s
263.03 K, 50500 kPa	–	0.9555 mPa·s
263.03 K, 60500 kPa	–	1.024 mPa·s
263.03 K, 70500 kPa	–	1.095 mPa·s
263.03 K, 80600 kPa	–	1.171 mPa·s
263.03 K, 90400 kPa	–	1.246 mPa·s
263.03 K, 100400 kPa	–	1.327 mPa·s
263.03 K, 110500 kPa	–	1.41 mPa·s
263.03 K, 120500 kPa	–	1.496 mPa·s
263.03 K, 130500 kPa	–	1.585 mPa·s
263.03 K, 140400 kPa	–	1.677 mPa·s
263.03 K, 150400 kPa	–	1.774 mPa·s
263.03 K, 160500 kPa	–	1.874 mPa·s
263.03 K, 170500 kPa	–	1.977 mPa·s
263.03 K, 180400 kPa	–	2.083 mPa·s
263.03 K, 190300 kPa	–	2.193 mPa·s
263.03 K, 200200 kPa	–	2.27 mPa·s
268.01 K, 100 kPa	–	0.6016 mPa·s and 0.5994 mPa·s
268.01 K, 3000 kPa	–	0.6145 mPa·s
268.01 K, 5500 kPa	–	0.6285 mPa·s
268.01 K, 8100 kPa	–	0.6428 mPa·s
268.01 K, 10600 kPa	–	0.6569 mPa·s
268.01 K, 25900 kPa	–	0.745 mPa·s
268.01 K, 50900 kPa	–	0.8969 mPa·s
268.01 K, 75900 kPa	–	1.065 mPa·s
268.01 K, 100700 kPa	–	1.243 mPa·s
268.01 K, 125700 kPa	–	1.44 mPa·s
268.01 K, 150600 kPa	–	1.657 mPa·s
268.01 K, 175700 kPa	–	1.896 mPa·s
268.01 K, 200700 kPa	–	2.151 mPa·s
268.01 K, 225600 kPa	–	2.432 mPa·s
268.01 K, 250800 kPa	–	2.742 mPa·s
268.01 K, 275300 kPa	–	3.073 mPa·s
268.01 K, 301000 kPa	–	3.447 mPa·s
268.01 K, 325300 kPa	–	3.833 mPa·s
268.01 K, 351200 kPa	–	4.283 mPa·s
268.01 K, 378000 kPa	–	4.766 mPa·s
273.15 K, 100 kPa	–	0.5601 mPa·s and 0.561 mPa·s
273.15 K, 3100 kPa	–	0.5756 mPa·s
273.15 K, 5600 kPa	–	0.5886 mPa·s
273.15 K, 8100 kPa	–	0.6022 mPa·s
273.15 K, 10600 kPa	–	0.6155 mPa·s
273.15 K, 25900 kPa	–	0.6979 mPa·s
273.15 K, 50800 kPa	–	0.8418 mPa·s
273.15 K, 75800 kPa	–	0.9972 mPa·s
273.15 K, 100700 kPa	–	1.166 mPa·s
273.15 K, 125500 kPa	–	1.349 mPa·s
273.15 K, 150500 kPa	–	1.55 mPa·s
273.15 K, 175500 kPa	–	1.769 mPa·s
273.15 K, 200500 kPa	–	2.006 mPa·s
273.15 K, 225300 kPa	–	2.266 mPa·s
273.15 K, 250600 kPa	–	2.552 mPa·s
273.15 K, 275800 kPa	–	2.864 mPa·s
273.15 K, 300700 kPa	–	3.198 mPa·s
273.15 K, 325900 kPa	–	3.56 mPa·s
273.15 K, 350700 kPa	–	3.947 mPa·s
273.15 K, 379200 kPa	–	4.44 mPa·s
278.15 K, 101.33 kPa	759.64	–
278.16 K, 100 kPa	–	0.5288 mPa·s and 0.529 mPa·s
278.16 K, 2900 kPa	–	0.543 mPa·s
278.16 K, 5000 kPa	–	0.5539 mPa·s
278.16 K, 8100 kPa	–	0.5697 mPa·s
278.16 K, 10800 kPa	–	0.5838 mPa·s
278.16 K, 25900 kPa	–	0.6618 mPa·s
278.16 K, 50800 kPa	–	0.7981 mPa·s
278.16 K, 75800 kPa	–	0.9456 mPa·s
278.16 K, 100600 kPa	–	1.105 mPa·s
278.16 K, 125700 kPa	–	1.28 mPa·s
278.16 K, 150700 kPa	–	1.469 mPa·s
278.16 K, 175800 kPa	–	1.675 mPa·s
278.16 K, 200700 kPa	–	1.895 mPa·s
278.16 K, 225800 kPa	–	2.137 mPa·s
278.16 K, 250800 kPa	–	2.395 mPa·s
278.16 K, 275900 kPa	–	2.679 mPa·s
278.16 K, 300800 kPa	–	2.992 mPa·s
278.16 K, 325900 kPa	–	3.323 mPa·s
278.16 K, 350900 kPa	–	3.683 mPa·s
278.16 K, 380100 kPa	–	4.144 mPa·s
283.15 K, 101.33 kPa	754.76	–
287.93 K, 100 kPa	–	0.471 mPa·s and 0.4712 mPa·s
287.93 K, 3000 kPa	–	0.4845 mPa·s
287.93 K, 5400 kPa	–	0.4955 mPa·s
287.93 K, 8100 kPa	–	0.5084 mPa·s
287.93 K, 10800 kPa	–	0.5216 mPa·s
287.93 K, 25900 kPa	–	0.5923 mPa·s
287.93 K, 50900 kPa	–	0.7153 mPa·s
287.93 K, 75800 kPa	–	0.8468 mPa·s
287.93 K, 100800 kPa	–	0.9885 mPa·s
287.93 K, 125700 kPa	–	1.143 mPa·s
287.93 K, 150600 kPa	–	1.308 mPa·s
287.93 K, 175700 kPa	–	1.488 mPa·s
287.93 K, 200600 kPa	–	1.681 mPa·s
287.93 K, 225700 kPa	–	1.893 mPa·s
287.93 K, 250700 kPa	–	2.121 mPa·s
287.93 K, 275700 kPa	–	2.361 mPa·s
287.93 K, 300800 kPa	–	2.623 mPa·s
287.93 K, 325500 kPa	–	2.901 mPa·s
287.93 K, 349500 kPa	–	3.196 mPa·s
287.93 K, 376900 kPa	–	3.563 mPa·s
288.15 K, 101.33 kPa	749.85	–
293.15 K, 101.33 kPa	744.9	–
298 K, 100 kPa	–	0.4191 mPa·s and 0.4196 mPa·s
298 K, 3000 kPa	–	0.4308 mPa·s
298 K, 5300 kPa	–	0.4404 mPa·s
298 K, 8100 kPa	–	0.4526 mPa·s
298 K, 10900 kPa	–	0.4644 mPa·s
298 K, 26000 kPa	–	0.5288 mPa·s
298 K, 50800 kPa	–	0.639 mPa·s
298 K, 75800 kPa	–	0.7572 mPa·s
298 K, 100800 kPa	–	0.8842 mPa·s
298 K, 125800 kPa	–	1.021 mPa·s
298 K, 150700 kPa	–	1.167 mPa·s
298 K, 175700 kPa	–	1.324 mPa·s
298 K, 200700 kPa	–	1.495 mPa·s
298 K, 225700 kPa	–	1.678 mPa·s
298 K, 250700 kPa	–	1.874 mPa·s
298 K, 275700 kPa	–	2.085 mPa·s
298 K, 300600 kPa	–	2.311 mPa·s
298 K, 324900 kPa	–	2.542 mPa·s
298 K, 349600 kPa	–	2.793 mPa·s
298 K, 375700 kPa	–	3.084 mPa·s
298.03 K, 100 kPa	–	0.419 mPa·s
298.03 K, 5500 kPa	–	0.441 mPa·s
298.03 K, 7800 kPa	–	0.4505 mPa·s
298.03 K, 10800 kPa	–	0.4637 mPa·s
298.03 K, 25900 kPa	–	0.5276 mPa·s
298.03 K, 50900 kPa	–	0.6379 mPa·s
298.03 K, 75800 kPa	–	0.7549 mPa·s
298.03 K, 100800 kPa	–	0.8807 mPa·s
298.03 K, 125800 kPa	–	1.016 mPa·s
298.03 K, 150700 kPa	–	1.163 mPa·s
298.03 K, 175700 kPa	–	1.322 mPa·s
298.03 K, 200700 kPa	–	1.491 mPa·s
298.03 K, 225600 kPa	–	1.673 mPa·s
298.03 K, 250600 kPa	–	1.871 mPa·s
298.03 K, 275600 kPa	–	2.081 mPa·s
298.03 K, 300400 kPa	–	2.305 mPa·s
298.03 K, 325300 kPa	–	2.545 mPa·s
298.03 K, 350100 kPa	–	2.8 mPa·s
298.03 K, 378000 kPa	–	3.112 mPa·s
298.15 K, 101.33 kPa	739.92	–

101.33 kPa, Capillary tube (Ostwald / Ubbelohde) method
Settings	viscosity [mPa·s]
278.15 K	0.523
283.15 K	0.4932
288.15 K	0.4657
293.15 K	0.4405
298.15 K	0.4173
